Source: ChEMBL document CHEMBL5137015, “Design, synthesis, and evaluation of a novel series of mono-indolylbenzoquinones derivatives for the potential treatment of breast cancer” (Eur J Med Chem, 2022)
pIC50: −log10 of the molar value. The source made the active and inactive calls. No cut-off for these calls is given here.

Assays:
A549 = assay: Antiproliferative activity against human A549 cells assessed as inhibition of cell growth by MTT assay; assay type: functional, cell-based
MDA-MB-231 [1] = assay: Antiproliferative activity against human MDA-MB-231 cells assessed as inhibition of cell growth by MTT assay; assay type: functional, cell-based
HeLa = assay: Antiproliferative activity against human HeLa cells assessed as inhibition of cell growth by MTT assay; assay type: functional, cell-based
MDA-MB-231 [2] = assay: Induction of cell cycle arrest in human MDA-MB-231 cells assessed as decrease in G1 phase cells at 10 uM incubated for 24 hrs by PI staining based flow cytometric analysis (reference value: 74.44%); assay type: functional; design: scale not given: the % may be the effect or the level left
MDA-MB-231 [3] = assay: Induction of cell cycle arrest in human MDA-MB-231 cells assessed as decrease in S phase cells at 10 uM incubated for 24 hrs by PI staining based flow cytometric analysis (reference value: 16.61%); assay type: functional; design: scale not given: the % may be the effect or the level left
MDA-MB-231 [4] = assay: Induction of cell cycle arrest in human MDA-MB-231 cells assessed as increase in G2 phase cells at 10 uM incubated for 24 hrs by PI staining based flow cytometric analysis (reference value: 8.95%); assay type: functional
MDA-MB-231 [5] = assay: Induction of apoptosis in human MDA-MB-231 cells assessed as apoptotic cells at 10 uM incubated for 24 hrs by Annexin V-FITC/propidium iodide staining based flow cytometric method (reference value: 5.68%); assay type: functional
4T1 [6] = assay: Antitumor activity against mouse 4T1 cells implanted in Balb/c mouse assessed as apoptotic rate of dissected tumor cell at 50 mg/kg administered intratumorally every four days for 14 days in the presence of liquid cyanoacrylate by flow cytometric analysis (reference value: 64.83%); assay type: functional; conditions: route it(Intratumoral), time 14 day
4T1 [7] = assay: Antitumor activity against mouse 4T1 cells implanted in Balb/c mouse assessed as tumor growth inhibition by measuring T/C ratio at 50 mg/kg administered intratumorally every four days for 14 days in the presence of liquid cyanoacrylate; assay type: functional; conditions: route it(Intratumoral), time 14 day
Mus musculus = assay: Protection of Balb/c mouse spleen implanted with mouse 4T1 cells at 50 mg/kg administered intratumorally every four days for 14 days in the presence of liquid cyanoacrylate; assay type: functional, organism-based; conditions: route it(Intratumoral), time 14.0 day
4T1 [8] = assay: Antitumor activity against mouse 4T1 cells implanted in Balb/c mouse assessed as tumor growth inhibition at 50 mg/kg administered intratumorally every four days for 14 days in the presence of liquid cyanoacrylate relative to control; assay type: functional; conditions: 4T1, 336 h, route it(Intratumoral), time 14 day, read-out: TGI
[9] = Toxicity in Balb/c mouse implanted with mouse 4T1 cells assessed as heart lesions at 50 mg/kg administered intratumorally every four days for 14 days in the presence of liquid cyanoacrylate by H&E staining based histopathological analysis; assay type: organism-based; conditions: in vivo, other, 336 h, route it(Intratumoral), time 14 day
[10] = Toxicity in Balb/c mouse implanted with mouse 4T1 cells assessed as liver lesions at 50 mg/kg administered intratumorally every four days for 14 days in the presence of liquid cyanoacrylate by H&E staining based histopathological analysis; assay type: organism-based; conditions: in vivo, other, 336 h, route it(Intratumoral), time 14 day
[11] = Toxicity in Balb/c mouse implanted with mouse 4T1 cells assessed as spleen lesions at 50 mg/kg administered intratumorally every four days for 14 days in the presence of liquid cyanoacrylate by H&E staining based histopathological analysis; assay type: organism-based; conditions: in vivo, other, 336 h, route it(Intratumoral), time 14 day
[12] = Toxicity in Balb/c mouse implanted with mouse 4T1 cells assessed as lung lesions at 50 mg/kg administered intratumorally every four days for 14 days in the presence of liquid cyanoacrylate by H&E staining based histopathological analysis; assay type: organism-based; conditions: in vivo, other, 336 h, route it(Intratumoral), time 14 day
[13] = Toxicity in Balb/c mouse implanted with mouse 4T1 cells assessed as kidney lesions at 50 mg/kg administered intratumorally every four days for 14 days in the presence of liquid cyanoacrylate by H&E staining based histopathological analysis; assay type: organism-based; conditions: in vivo, other, 336 h, route it(Intratumoral), time 14 day
4T1 [14] = assay: Antitumor activity against mouse 4T1 cells implanted in Balb/c mouse assessed as nuclei disappearance at 50 mg/kg administered intratumorally every four days for 14 days in the presence of liquid cyanoacrylate; assay type: functional, organism-based; conditions: route it(Intratumoral), time 14.0 day
4T1 [15] = assay: Antitumor activity against mouse 4T1 cells implanted in Balb/c mouse assessed as TUNEL positive cells at 50 mg/kg administered intratumorally every four days for 14 days in the presence of liquid cyanoacrylate by TUNEL staining analysis; assay type: functional; conditions: route it(Intratumoral), time 14 day

| SMILES | pIC50 (A549) | pIC50 (MDA-MB-231 [1]) | pIC50 (HeLa) | further results |
| --- | --- | --- | --- | --- |
| Cc1[nH]c2ccccc2c1C1=C(Cl)C(=O)C(Cl)=C(NCCc2cc3ccccc3[nH]2)C1=O | < 5.00 | 6.21 | < 5.00 | – |
| COC(=O)/C=C/C(=O)OCCN1CCN(C2=C(Cl)C(=O)C(Cl)=C(c3c(C)[nH]c4ccccc34)C2=O)CC1 | 5.08 | 6.59 | 6.66 | – |
| C#CCNC1=C(Cl)C(=O)C(Cl)=C(c2c(C)[nH]c3ccccc23)C1=O | 6.80 | 6.72 | 6.72 | – |
| Cc1[nH]c2ccccc2c1C1=C(Cl)C(=O)C(N2CCOCC2)=C(Cl)C1=O | 6.77 | 6.70 | 6.60 | Activity (MDA-MB-231 [2]): 10.44%; Activity (MDA-MB-231 [3]): 7.67%; Activity (MDA-MB-231 [4]): 81.89%; Activity (MDA-MB-231 [5]): 31.74% |
| Cc1[nH]c2ccccc2c1C1=C(Cl)C(=O)C(NCCc2cc3ccccc3[nH]2)=C(Cl)C1=O | 6.36 | 6.08 | 5.51 | – |
| COc1ccc(CCNC2=C(Cl)C(=O)C(c3c(C)[nH]c4ccccc34)=C(Cl)C2=O)cc1OC | 6.14 | 6.54 | 5.20 | – |
| C#CCNC1=C(Cl)C(=O)C(c2c(C)[nH]c3ccccc23)=C(Cl)C1=O | 6.17 | 6.77 | 6.04 | – |
| COC(=O)/C=C/C(=O)OCCN1CCN(C2=C(Cl)C(=O)C(c3c(C)[nH]c4ccccc34)=C(Cl)C2=O)CC1 | 6.49 | 6.85 | 6.48 | – |
| Cc1[nH]c2ccccc2c1C1=C(Cl)C(=O)C(Cl)=C(NCCOc2ccccc2)C1=O | < 5.00 | 6.15 | < 5.00 | – |
| Cn1c(CCCC(=O)O)nc2cc(N(CCCl)CCCl)ccc21 [BENDAMUSTINE] | – | – | < 4.70 | – |
| COC(=O)/C=C/C(=O)OCCNC1=C(Cl)C(=O)C(Cl)=C(c2c(C)[nH]c3ccccc23)C1=O | 6.47 | 6.85 | 6.96 | – |
| Cc1[nH]c2ccccc2c1C1=C(Cl)C(=O)C(Cl)=C(N2CCN(C=O)CC2)C1=O | 6.77 | 6.92 | 6.46 | – |
| Cc1[nH]c2ccccc2c1C1=C(Cl)C(=O)C(N2CCN(C=O)CC2)=C(Cl)C1=O | 6.43 | 6.70 | 6.13 | – |
| COC(=O)/C=C/C(=O)OCCNC1=C(Cl)C(=O)C(c2c(C)[nH]c3ccccc23)=C(Cl)C1=O | 6.82 | 6.96 | 6.66 | – |
| COc1ccc(/C=C\c2cc(OC)c(OC)c(OC)c2)cc1O [COMBRETASTATIN A4] | – | – | – | Activity (MDA-MB-231 [2]): 8.4%; Activity (MDA-MB-231 [3]): 8%; Activity (MDA-MB-231 [4]): 91.6%; Activity (MDA-MB-231 [5]): 25.55% |
| Cc1[nH]c2ccccc2c1C1=C(Cl)C(=O)C(NCCOc2ccccc2)=C(Cl)C1=O | 5.15 | 6.14 | 5.30 | – |
| COc1ccc(CCNC2=C(Cl)C(=O)C(Cl)=C(c3c(C)[nH]c4ccccc34)C2=O)cc1OC | 5.06 | 5.83 | 5.01 | – |
| O=C1c2c(O)ccc(O)c2C(=O)c2c(NCCNCCO)ccc(NCCNCCO)c21 [MITOXANTRONE] | – | – | – | Activity (4T1 [6]): 77.86%; T/C (4T1 [7]): 32%; Activity (Mus musculus): Active; inhibition in vivo at 50 mg/kg (4T1 [8]): 59.8%; Activity [9]: Non-Toxic; Activity [10]: Non-Toxic; Activity [11]: Non-Toxic; Activity [12]: Non-Toxic; Activity [13]: Non-Toxic; Activity (4T1 [14]): Active; Activity (4T1 [15]): 93.24% |
